{"source": "patent US11555072B2", "about": "“A33 antibody compositions and methods of using the same in radioimmunotherapy” (MEMORIAL SLOAN KETTERING CANCER CENTER, priority 2017, dated 2023)", "key": {"GPA33": {"target": "T1, GPA33 (Homo sapiens, UniProt Q99795)", "T1 construct": "endogenous in cells; host or cells: human colon cancer cell lines (e.g. LS174T, SW1222, Colo205) and gastric cancer cell line SNU16", "T1 sequence (Q99795 22-319)": "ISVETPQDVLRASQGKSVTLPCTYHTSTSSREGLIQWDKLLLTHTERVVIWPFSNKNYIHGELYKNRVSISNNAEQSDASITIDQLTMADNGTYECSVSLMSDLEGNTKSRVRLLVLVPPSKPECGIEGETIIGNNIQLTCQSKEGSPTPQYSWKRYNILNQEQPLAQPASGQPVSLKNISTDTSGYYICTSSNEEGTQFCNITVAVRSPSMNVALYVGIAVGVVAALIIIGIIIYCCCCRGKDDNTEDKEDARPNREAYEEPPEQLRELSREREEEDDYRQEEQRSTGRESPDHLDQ", "assay": "FACS staining of tumor cell lines", "assay_type": "cell-based", "settings": "panel of GPA33(+) and GPA33(−) cell lines", "from_the_text": "(§1) Antibodies and flow cytometry. Antibodies anti-hCD25-PE, anti-CD69-PE, anti-hCD8-APC, anti-hCD45-PECy7, anti-hCD4-PE, anti-hCD4-BV421, anti-hCD62L-PercpCy5.5, anti-hPD1-BV421, anti-hCD45RO-PECy7, were purchased from BIOLEGEND® (San Diego, Calif.). Goat anti-human IgG-PE was purchased from SouthernBiotech (Birmingham, Ala.). Streptavidin-PE, anti-hCD4-APC and anti-hCD25-APC were purchased from BD Biosciences (San Jose, Calif.). All FACS analysis was done using FACSCalibur or LSRII system (BD Biosciences, San Jose, Calif.) and analyzed using FlowJo (FLOWJO, Ashland, Oreg.).\n(§2) The avidities of huA33-BsAb towards GPA33 at both 25° C. and 37° C. were measured using GPA33 immobilized CM5 chips."}, "Colo205 cells": {"test_system": "Colo205 cells", "assay": "TDCC assay with sorted fresh T cell subsets", "assay_type": "cell-based, human", "method": "T-cell dependent cytotoxicity (TDCC) assays. Cytotoxicity assays were performed using both ^51Cr-release assay and Pierce LDH-release assay (Thermo Fisher Scientific, Cambridge, Mass.). For both assays, T cells activated by exposure to anti-CD3/anti-CD28 Dynabeads for 14 days were subsequently used as effector cells, excepted for sorted cells from PBMCs, which were used for TDCC assay without prior stimulation. ^51Cr assay was performed as previously described in Cheng M et al., International Journal of Cancer 136:476-486 (2015). LDH assay was conducted according to the manufacturer's instructions with the following modifications. Briefly, for each assay well of a 96-well round-bottom plate, 1.5×10^4 target cells were incubated with variable number of effector cells, depending on the intended E:T ratios. […] Each condition was done in triplicates. Supernatant was then transferred to a flat bottom plate with reaction substrate and incubated for 30 min before reading at 490 nm, with 680 nm as a reference wavelength. EC50 values were calculated by fitting the curves to a 4-parameter nonlinear regression model using GraphPad Prism.\nTo determine which subsets of T cells were mobilized by huA33-BsAb, CD45RA(+)CD62L(+) and CD45RA(−)CD45RO(+)CD62L(−) memory subsets from both CD4(+) and CD8(+) T cells were sorted. […]"}, "CD3 on T cell surface": {"target": "T2, CD3 on T cell surface (Homo sapiens, UniProt P07766)", "T2 construct": "endogenous in cells", "T2 sequence (P07766 23-207)": "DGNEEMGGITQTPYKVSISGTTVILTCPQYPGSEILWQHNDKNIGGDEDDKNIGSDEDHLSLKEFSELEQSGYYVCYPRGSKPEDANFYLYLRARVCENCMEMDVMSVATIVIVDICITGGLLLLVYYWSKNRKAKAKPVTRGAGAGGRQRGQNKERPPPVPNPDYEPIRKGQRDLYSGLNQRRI", "T2 sequence (P09693 23-182 partner)": "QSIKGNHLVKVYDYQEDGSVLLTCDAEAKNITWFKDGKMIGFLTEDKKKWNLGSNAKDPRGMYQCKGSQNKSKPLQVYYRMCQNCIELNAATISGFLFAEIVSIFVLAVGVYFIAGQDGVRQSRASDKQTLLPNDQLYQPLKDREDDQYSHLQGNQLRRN", "T2 sequence (P04234 22-171 partner)": "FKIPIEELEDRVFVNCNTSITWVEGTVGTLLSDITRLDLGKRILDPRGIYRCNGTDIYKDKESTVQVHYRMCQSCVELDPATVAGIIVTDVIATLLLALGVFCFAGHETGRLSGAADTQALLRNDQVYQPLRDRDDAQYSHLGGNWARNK", "T2 sequence (P20963 22-164 partner)": "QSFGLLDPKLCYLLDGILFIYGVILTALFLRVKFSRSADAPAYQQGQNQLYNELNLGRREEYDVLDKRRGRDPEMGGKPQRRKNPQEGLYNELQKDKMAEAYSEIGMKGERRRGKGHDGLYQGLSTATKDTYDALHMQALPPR", "assay": "FACS staining of activated T cells", "assay_type": "cell-based", "from_the_text": "as §1, §2"}, "[1]": {"assay": "SEC-HPLC stability test (37° C. incubation, freeze-thaw)", "assay_type": "physicochemical", "method": "SEC-HPLC analysis. Size and purity of huA33-BsAb was analyzed using HPLC system (Shimadzu Scientific Instruments Inc., Columbia, Md.). Monomeric species were identified using a molecular weight standard (Bio-Rad Laboratories, Hercules, Calif.) and percent monomer was calculated based on the relative area under curve (AUC) of different non-buffer peaks.\nThe huA33 antibody was reformatted into bispecific format by fusing scFv of humanized OKT3 to the C-terminus of light chain via a flexible GS linker (FIG. 1(A)). The DNA construct was used to establish a CHO-S stable cell line and huA33-BsAb was purified from the supernatant. Protein yield using protein A chromatography was 50 mg/L to 100 mg/L without extensive optimization. Similar yields were observed using EXPI293™ transient expression system (data not shown). One-step protein A purification routinely produced protein with purity above 90%, as measured by SEC-HPLC."}, "T cells": {"test_system": "T cells", "assay": "T cell activation and proliferation assay (CFSE-labeled PBMCs plus tumor cells)", "assay_type": "cell-based, human", "method": "T cell proliferation assay. Fresh PBMCs from healthy donors were labeled with […] CFSE (Life Technologies Corp., Carlsbad, Calif.) for 5 min at room temperature, followed by neutralization using PBS containing 5% FBS. Target cells were then incubated with labeled PBMCs under different conditions at 37° C. before analyzing the expression of surface activation markers and T cell proliferation at 24 hours and 96 hours.\nHuA33-BsAb activated and induced cell cycle entry of fresh T cells."}, "LS174T tumor": {"test_system": "LS174T tumor", "assay": "i.p. LS174T-luc tumor model with i.v. activated T cells", "assay_type": "in vivo, mice", "method": "For intraperitoneal (i.p.) tumor models, luciferase expressing LS174T-luc or SW1222-luc cells were resuspended in RPMI medium and injected intraperitoneally into DKO mice. Human effector cells were supplied as activated T cells and injected intravenously. Mice were treated with 2-3 weekly cycles of antibody-T cell-antibody regimen, with each component separated by 3-4 days. Growth of tumors was followed weekly by measuring luminescence signals on an IVIS Spectrum in vivo imaging system ([…]® Inc., Waltham, Mass.) after injection of 3.3 mg/mouse of luciferin. Luminescence was analyzed and quantified using Living Image Software ([…]®-Inc., Waltham, Mass.).\nTo simulate malignant ascites, a common occurrence in colon cancers, luciferase-expressing LS174T cells were planted intraperitoneally into DKO mice. When tumor growth was confirmed by luminescence, mice were randomized into different treatment groups, treated with no antibody group (tumor only), tumor+T cell only group (tumor+ATC), or i.v. huA33-BsAb (7 doses over 3 weeks), plus weekly T cell injections over 3 weeks. Treatment was started on day 5 after tumor implantation. All T cells were injected through retro-orbital route."}}}
{"substance": "huA33-BsAb: huA33 IgG with humanized OKT3 scFv fused to light chain C-terminus, N297A and K322A; SEQ ID NO: 19 and 21", "values": [{"measurement": "FACS staining of cancer cell lines", "setting": "GPA33", "result": "stained colon cancer cell lines and one gastric cancer cell line but not GPA33(−) neuroblastoma cell line IMR32, osteosarcoma cell line TC32 or melanoma cell line SKMEL5"}, {"measurement": "CD25 expression on T cells from the TDCC assay", "setting": "Colo205 cells; CD45RO+ and CD45RO− fractions, 48 hours", "result": "CD25 expression was upregulated"}, {"measurement": "cytotoxicity by sorted T cell subsets", "setting": "Colo205 cells; Colo205, E:T 5:1, 48 hours, LDH assay", "result": "both CD4(+) and CD8(+) memory T cell subsets were capable of inducing cytotoxicity"}, {"measurement": "staining of activated T cells", "setting": "CD3 on T cell surface", "result": "bound to CD3 on T cell surface"}, {"measurement": "percentage of monomers after incubation", "setting": "[1]; 37° C. for 4 weeks, SEC-HPLC", "result": "only a minimal decrease in the percentage of monomers"}, {"measurement": "SEC-HPLC profile after freeze-thaw", "setting": "[1]; four cycles of freeze-thaw", "result": "did not cause noticeable changes in SEC-HPLC profile"}, {"measurement": "PD-1 upregulation on T cells", "setting": "T cells; PBMCs + Colo205, 24 and 96 hours", "result": "PD-1 upregulation was observed after 24 hours and persisted until 96 hours"}, {"measurement": "T cell division by CFSE dye dilution", "setting": "T cells; PBMCs + Colo205, 96 hours", "result": "observed in both CD4(+) and CD8(+) T cells after 96 hours"}, {"measurement": "T cell activation (upregulation of CD25 and CD69 markers)", "setting": "T cells; PBMCs + Colo205, E:T 5, 1 μg/ml, 24 hours", "result": "caused activation of both CD4(+) and CD8(+) T cells"}, {"measurement": "T cell activation with GPA33(−) target cells", "setting": "T cells; SKMEL5 target cells, 96 hours", "result": "did not activate T cells"}, {"measurement": "tumor growth in the abdomen", "setting": "LS174T tumor; i.v., 7 doses over 3 weeks, weekly T cells", "result": "significantly suppressed metastatic growth of LS174T tumor"}, {"measurement": "time all mice remained alive", "setting": "LS174T tumor; without further treatment", "result": "at least 60 days"}]}
